# Measurements as given in patent publication US20070092558A1, “Methods of Preparing Targeted Immunoliposomes” (priority 2005, published 2007).
# Tests used:
# [1] = test system: MD-MBA 231 (breast cancer cells); test: cytotoxicity assay (ATPlite luminescence), 1 h treatment then 72 h incubation; conditions: MD-MBA 231 cells, 0-18 μg/ml [DOX], FIG. 3A
# [2] = test system: A431 (epidermoid cancer cells); conditions: 0-18 μg/ml [DOX], 1-hour treatment, 72-hour incubation, FIG. 3B
compound,measurement,setting,value
"COc1cccc2c1C(=O)c1c(O)c3c(c(O)c1C2=O)C[C@@](O)(C(=O)CO)C[C@@H]3O[C@H]1C[C@H](N)[C@H](O)[C@H](C)O1 [free doxorubicin, doxorubicin]",cytotoxicity (cell viability),[1],concentration effects on cell viability
same,cytotoxicity (cell viability),[2],concentration effects on cell viability
